Measured values as given in ChEMBL document CHEMBL5291721, “A preclinical secondary pharmacology resource illuminates target-adverse drug reaction associations of marketed drugs” (Nat Commun, 2023).
Where a SMILES comes first, the peptide text is derived from it.

Legend:
[1] = target: T1, Alpha-2A adrenergic receptor (Homo sapiens, UniProt P08913); assay type: functional, cell-based
T1 sequence (P08913 whole entry): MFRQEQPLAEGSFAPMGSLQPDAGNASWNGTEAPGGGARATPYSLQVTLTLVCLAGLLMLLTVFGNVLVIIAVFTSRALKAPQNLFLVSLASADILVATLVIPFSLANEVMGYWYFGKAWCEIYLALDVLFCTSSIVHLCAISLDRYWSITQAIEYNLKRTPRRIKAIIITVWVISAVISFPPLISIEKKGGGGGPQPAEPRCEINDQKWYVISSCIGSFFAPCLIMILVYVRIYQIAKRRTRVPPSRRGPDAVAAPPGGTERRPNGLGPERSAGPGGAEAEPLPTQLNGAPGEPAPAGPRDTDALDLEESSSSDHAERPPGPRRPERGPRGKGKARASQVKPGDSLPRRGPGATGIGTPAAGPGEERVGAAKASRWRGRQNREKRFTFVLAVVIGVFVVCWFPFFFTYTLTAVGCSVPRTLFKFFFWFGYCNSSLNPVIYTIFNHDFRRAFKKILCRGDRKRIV

[2] = target: T2, Type-1 angiotensin II receptor (Homo sapiens, UniProt P30556)
T2 sequence (P30556 whole entry): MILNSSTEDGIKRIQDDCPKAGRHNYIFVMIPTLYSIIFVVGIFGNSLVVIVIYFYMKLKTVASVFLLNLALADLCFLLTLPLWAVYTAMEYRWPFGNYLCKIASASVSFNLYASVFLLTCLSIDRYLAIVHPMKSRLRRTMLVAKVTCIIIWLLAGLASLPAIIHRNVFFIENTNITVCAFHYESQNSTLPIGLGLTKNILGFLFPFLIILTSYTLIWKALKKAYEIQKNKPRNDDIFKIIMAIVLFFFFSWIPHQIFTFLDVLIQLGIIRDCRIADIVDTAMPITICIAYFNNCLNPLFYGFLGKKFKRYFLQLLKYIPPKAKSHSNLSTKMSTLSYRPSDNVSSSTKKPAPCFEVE

[3] = target: T3, Muscarinic acetylcholine receptor M2 (Homo sapiens, UniProt P08172); assay type: functional, cell-based
T3 sequence (P08172 whole entry): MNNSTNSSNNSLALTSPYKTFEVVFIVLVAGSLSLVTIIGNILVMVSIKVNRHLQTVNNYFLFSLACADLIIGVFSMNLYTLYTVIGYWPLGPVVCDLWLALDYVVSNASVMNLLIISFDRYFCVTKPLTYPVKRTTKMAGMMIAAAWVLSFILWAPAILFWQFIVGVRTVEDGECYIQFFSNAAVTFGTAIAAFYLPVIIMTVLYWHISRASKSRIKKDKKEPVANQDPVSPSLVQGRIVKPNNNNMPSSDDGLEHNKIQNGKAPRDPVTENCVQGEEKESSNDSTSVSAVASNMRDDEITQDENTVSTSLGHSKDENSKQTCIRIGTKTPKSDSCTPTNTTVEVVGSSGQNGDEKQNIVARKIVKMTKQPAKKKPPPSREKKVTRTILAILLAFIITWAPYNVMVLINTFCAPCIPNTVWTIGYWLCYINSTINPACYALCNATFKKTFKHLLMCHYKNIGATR

[4] = target: Neuronal acetylcholine receptor subunit alpha-4 (Homo sapiens, UniProt P43681)
Neuronal acetylcholine receptor subunit alpha-4, sequence (P43681 whole entry): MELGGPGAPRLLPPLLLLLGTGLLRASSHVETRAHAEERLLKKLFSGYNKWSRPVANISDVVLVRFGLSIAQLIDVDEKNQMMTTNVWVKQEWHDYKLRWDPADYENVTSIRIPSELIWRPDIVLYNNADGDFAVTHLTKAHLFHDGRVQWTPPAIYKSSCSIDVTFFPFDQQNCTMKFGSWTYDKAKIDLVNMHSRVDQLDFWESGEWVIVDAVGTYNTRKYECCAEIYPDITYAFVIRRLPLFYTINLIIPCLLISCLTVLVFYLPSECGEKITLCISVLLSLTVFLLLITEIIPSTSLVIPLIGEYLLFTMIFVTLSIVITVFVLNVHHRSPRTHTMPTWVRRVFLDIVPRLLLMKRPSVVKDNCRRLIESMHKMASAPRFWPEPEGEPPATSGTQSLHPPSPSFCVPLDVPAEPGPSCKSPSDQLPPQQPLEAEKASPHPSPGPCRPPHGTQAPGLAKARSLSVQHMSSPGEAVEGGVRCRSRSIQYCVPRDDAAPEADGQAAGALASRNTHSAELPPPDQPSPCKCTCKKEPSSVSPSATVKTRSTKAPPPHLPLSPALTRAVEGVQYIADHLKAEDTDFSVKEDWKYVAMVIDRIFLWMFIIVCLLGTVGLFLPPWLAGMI

[5] = target: Gamma-aminobutyric acid receptor subunit alpha-1 (Rattus norvegicus, UniProt P62813); assay type: functional
Gamma-aminobutyric acid receptor subunit alpha-1, sequence (P62813 whole entry): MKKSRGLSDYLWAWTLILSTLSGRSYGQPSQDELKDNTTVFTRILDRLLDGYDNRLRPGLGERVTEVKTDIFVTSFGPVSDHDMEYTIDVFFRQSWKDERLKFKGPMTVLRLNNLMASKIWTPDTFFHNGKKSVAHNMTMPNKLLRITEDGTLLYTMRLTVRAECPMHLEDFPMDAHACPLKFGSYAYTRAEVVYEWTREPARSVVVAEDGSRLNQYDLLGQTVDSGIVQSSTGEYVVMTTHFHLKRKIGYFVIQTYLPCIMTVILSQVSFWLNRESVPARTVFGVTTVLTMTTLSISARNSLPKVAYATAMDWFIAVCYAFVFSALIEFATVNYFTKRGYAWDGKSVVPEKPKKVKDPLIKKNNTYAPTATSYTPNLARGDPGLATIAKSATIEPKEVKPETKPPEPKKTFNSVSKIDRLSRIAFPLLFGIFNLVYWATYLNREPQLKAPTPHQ

[6] = target: Growth hormone secretagogue receptor type 1 (Homo sapiens, UniProt Q92847)
Growth hormone secretagogue receptor type 1, sequence (Q92847 whole entry): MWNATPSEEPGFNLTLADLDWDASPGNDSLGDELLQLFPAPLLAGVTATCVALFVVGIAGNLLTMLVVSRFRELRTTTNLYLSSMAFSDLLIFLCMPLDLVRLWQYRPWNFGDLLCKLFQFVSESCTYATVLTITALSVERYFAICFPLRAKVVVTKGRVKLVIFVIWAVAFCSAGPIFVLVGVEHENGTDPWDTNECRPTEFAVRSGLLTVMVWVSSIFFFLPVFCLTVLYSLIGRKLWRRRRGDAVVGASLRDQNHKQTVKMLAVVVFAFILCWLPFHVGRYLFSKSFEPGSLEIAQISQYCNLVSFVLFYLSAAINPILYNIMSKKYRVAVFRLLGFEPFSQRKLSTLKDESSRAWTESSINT

Histamine H1 receptor = Histamine H1 receptor (Homo sapiens, UniProt P35367)
Histamine H1 receptor, sequence (P35367 whole entry): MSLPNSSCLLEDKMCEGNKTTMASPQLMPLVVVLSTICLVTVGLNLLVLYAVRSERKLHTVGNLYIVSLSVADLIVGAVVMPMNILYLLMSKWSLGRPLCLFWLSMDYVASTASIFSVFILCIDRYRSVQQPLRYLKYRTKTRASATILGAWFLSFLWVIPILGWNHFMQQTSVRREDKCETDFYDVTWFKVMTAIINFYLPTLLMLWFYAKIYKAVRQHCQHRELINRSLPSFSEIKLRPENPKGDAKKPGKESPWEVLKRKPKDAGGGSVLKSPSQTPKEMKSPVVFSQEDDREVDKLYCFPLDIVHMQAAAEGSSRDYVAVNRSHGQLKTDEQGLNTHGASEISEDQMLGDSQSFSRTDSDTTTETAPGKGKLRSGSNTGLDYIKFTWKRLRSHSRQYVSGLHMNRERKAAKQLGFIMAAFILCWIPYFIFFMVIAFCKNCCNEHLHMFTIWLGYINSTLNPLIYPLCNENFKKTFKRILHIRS

[7] = target: 5-hydroxytryptamine receptor 2A (Homo sapiens, UniProt P28223); assay type: functional, cell-based
5-hydroxytryptamine receptor 2A, sequence (P28223 whole entry): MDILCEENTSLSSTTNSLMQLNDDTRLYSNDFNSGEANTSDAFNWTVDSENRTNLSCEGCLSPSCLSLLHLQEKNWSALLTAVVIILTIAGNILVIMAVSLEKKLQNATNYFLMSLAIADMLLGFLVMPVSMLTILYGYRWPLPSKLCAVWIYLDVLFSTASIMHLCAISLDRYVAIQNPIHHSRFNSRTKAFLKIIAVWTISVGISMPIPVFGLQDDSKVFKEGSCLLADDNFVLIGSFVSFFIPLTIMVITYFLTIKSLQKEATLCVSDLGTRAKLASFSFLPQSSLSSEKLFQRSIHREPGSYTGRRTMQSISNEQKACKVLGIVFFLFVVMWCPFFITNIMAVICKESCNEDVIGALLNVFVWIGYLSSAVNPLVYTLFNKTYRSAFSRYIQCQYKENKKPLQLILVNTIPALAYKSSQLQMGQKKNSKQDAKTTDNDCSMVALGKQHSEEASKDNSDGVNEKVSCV

[8] = target: T4, 5-hydroxytryptamine receptor 3A (Homo sapiens, UniProt P46098); assay type: functional
T4 sequence (P46098 whole entry): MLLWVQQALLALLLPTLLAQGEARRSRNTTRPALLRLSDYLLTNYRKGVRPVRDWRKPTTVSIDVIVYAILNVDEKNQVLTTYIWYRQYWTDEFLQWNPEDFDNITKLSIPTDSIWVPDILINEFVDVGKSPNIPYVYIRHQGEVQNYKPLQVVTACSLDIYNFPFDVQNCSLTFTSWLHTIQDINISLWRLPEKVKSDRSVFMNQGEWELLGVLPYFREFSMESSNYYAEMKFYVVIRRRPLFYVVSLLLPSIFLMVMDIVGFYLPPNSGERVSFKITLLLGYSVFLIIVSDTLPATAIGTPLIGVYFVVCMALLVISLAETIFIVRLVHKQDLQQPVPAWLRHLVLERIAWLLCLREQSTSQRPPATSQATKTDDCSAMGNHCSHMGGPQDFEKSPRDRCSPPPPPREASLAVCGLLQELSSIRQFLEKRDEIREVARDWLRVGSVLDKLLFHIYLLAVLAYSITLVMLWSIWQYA

[9] = target: Delta-type opioid receptor (Homo sapiens, UniProt P41143)
Delta-type opioid receptor, sequence (P41143 whole entry): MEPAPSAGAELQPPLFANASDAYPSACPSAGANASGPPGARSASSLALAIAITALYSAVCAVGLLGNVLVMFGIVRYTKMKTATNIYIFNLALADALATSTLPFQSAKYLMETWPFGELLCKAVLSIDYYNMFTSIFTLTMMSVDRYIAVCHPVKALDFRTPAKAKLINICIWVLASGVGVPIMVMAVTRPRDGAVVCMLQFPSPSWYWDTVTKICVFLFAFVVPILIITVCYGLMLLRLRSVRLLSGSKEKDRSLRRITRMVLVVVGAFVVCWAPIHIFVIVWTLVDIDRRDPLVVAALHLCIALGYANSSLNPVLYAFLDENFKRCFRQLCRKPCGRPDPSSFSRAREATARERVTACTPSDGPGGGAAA

[10] = target: Sodium-dependent dopamine transporter (Homo sapiens, UniProt Q01959)
Sodium-dependent dopamine transporter, sequence (Q01959 whole entry): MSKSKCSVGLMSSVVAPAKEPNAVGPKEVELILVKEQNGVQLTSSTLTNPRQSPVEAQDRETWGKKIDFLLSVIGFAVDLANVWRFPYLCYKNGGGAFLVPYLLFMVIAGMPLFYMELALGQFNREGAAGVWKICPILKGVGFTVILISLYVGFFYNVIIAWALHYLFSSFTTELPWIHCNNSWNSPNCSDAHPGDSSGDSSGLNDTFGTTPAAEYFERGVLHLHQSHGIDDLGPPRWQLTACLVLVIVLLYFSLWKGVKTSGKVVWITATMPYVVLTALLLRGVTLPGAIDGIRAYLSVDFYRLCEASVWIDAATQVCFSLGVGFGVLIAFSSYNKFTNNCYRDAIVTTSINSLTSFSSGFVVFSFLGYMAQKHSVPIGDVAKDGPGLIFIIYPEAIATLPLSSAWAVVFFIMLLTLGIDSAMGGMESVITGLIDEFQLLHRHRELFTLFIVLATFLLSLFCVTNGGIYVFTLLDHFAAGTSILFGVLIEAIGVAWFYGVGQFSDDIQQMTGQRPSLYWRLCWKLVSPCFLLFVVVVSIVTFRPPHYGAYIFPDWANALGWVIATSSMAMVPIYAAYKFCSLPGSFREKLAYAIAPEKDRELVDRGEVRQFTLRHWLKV

[11] = target: Sodium-dependent noradrenaline transporter (Homo sapiens, UniProt P23975)
Sodium-dependent noradrenaline transporter, sequence (P23975 whole entry): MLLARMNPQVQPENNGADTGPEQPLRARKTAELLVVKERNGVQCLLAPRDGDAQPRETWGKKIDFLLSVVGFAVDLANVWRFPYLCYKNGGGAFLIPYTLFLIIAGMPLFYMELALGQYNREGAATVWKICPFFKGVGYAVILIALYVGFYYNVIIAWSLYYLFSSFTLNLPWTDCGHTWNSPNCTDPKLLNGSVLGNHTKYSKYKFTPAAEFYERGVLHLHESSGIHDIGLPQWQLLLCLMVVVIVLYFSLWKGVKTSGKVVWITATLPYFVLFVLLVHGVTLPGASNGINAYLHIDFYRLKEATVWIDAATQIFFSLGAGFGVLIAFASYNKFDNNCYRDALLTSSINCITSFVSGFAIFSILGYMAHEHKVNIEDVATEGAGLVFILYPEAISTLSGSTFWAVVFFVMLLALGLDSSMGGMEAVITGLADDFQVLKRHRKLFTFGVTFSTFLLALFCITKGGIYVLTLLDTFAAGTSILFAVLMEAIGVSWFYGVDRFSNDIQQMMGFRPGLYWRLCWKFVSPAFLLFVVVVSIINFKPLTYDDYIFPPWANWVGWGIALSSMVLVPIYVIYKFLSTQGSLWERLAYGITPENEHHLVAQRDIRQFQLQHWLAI

[12] = target: Sodium-dependent serotonin transporter (Homo sapiens, UniProt P31645)
Sodium-dependent serotonin transporter, sequence (P31645 whole entry): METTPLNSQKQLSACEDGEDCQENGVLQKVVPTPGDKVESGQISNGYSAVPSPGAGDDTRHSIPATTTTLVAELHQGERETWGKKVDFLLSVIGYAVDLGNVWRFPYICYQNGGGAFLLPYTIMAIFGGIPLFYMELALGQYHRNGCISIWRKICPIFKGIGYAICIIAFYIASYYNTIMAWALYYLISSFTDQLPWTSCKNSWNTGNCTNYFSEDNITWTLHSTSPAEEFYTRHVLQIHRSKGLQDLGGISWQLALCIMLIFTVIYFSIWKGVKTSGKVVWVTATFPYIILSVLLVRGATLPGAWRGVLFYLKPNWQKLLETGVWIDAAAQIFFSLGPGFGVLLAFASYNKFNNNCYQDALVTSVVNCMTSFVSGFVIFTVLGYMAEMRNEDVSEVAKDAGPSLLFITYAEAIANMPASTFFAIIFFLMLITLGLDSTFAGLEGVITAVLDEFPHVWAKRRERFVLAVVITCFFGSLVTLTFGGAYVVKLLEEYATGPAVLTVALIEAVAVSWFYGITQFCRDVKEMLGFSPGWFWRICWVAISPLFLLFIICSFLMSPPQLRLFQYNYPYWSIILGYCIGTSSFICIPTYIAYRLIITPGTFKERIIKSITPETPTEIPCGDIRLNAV

Melanocortin receptor 4 = Melanocortin receptor 4 (Homo sapiens, UniProt P32245)
Melanocortin receptor 4, sequence (P32245 whole entry): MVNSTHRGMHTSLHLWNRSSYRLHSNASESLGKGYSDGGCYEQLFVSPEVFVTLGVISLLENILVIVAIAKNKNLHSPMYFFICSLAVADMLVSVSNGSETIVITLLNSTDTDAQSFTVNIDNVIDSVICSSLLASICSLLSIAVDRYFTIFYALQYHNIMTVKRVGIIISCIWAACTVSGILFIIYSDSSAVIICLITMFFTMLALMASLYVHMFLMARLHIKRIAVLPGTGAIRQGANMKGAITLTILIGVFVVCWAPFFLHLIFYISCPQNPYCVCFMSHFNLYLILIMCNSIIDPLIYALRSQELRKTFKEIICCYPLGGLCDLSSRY
Also: assay procedure not described here.

| SMILES | AC50 [1] [µM] | AC50 [2] [µM] | AC50 [3] [µM] | AC50 [4] [µM] | AC50 [5] [µM] | AC50 [6] [µM] | AC50 (Histamine H1 receptor) [µM] | AC50 [7] [µM] | AC50 [8] [µM] | AC50 [9] [µM] | AC50 [10] [µM] | AC50 [11] [µM] | AC50 [12] [µM] | AC50 (Melanocortin receptor 4) [µM] |
| --- | --- | --- | --- | --- | --- | --- | --- | --- | --- | --- | --- | --- | --- | --- |
| CCN(CC)Cc1nccn1-c1ccc([N+](=O)[O-])cc1C(=O)c1ccccc1Cl [NIZOFENONE] | > 30 | > 30 | > 30 | 8.3 | > 30 | > 30 | > 30 | > 30 | > 30 | > 30 | > 30 | > 30 | > 30 |  |
| CC1=C(/C=C/C(C)=C/C=C/C(C)=C/C(=O)Oc2c(C)c(C)c3c(c2C)CCC(C)(CCCC(C)CCCC(C)CCCC(C)C)O3)C(C)(C)CCC1 (stereo unspecified) [TRETINOIN TOCOFERIL] | > 30 | > 30 | > 30 | > 30 | > 30 | > 30 | > 30 | > 30 | > 30 | > 30 | > 30 | > 30 | > 30 |  |
| CO/N=C(\C(=O)N[C@@H]1C(=O)N2C(C(=O)O)=C(CSc3nc(C)c(CC(=O)O)s3)CS[C@H]12)c1csc(N)n1 [CEFODIZIME] | > 30 | > 30 | > 30 | > 30 | > 30 | > 30 | > 30 | > 30 | > 30 | > 30 | > 30 | > 30 | > 30 |  |
| CN(C)CCOCC(=O)NC12CC3CC(CC(C3)C1)C2 [TROMANTADINE] | > 30 | > 30 | > 30 | > 30 | > 30 | > 30 | > 30 | > 30 | > 30 | > 30 | > 30 | > 30 | > 30 |  |
| COC(=O)c1ccc2c(c1)NC(=O)/C2=C(\Nc1ccc(N(C)C(=O)CN2CCN(C)CC2)cc1)c1ccccc1 [NINTEDANIB] | > 30 | > 30 | > 30 | > 30 | > 30 | > 30 | > 30 | > 30 | > 30 | > 30 | > 30 | > 30 | > 30 |  |
| O=C(O[C@H]1C[N+]2(CCCOc3ccccc3)CCC1CC2)C(O)(c1cccs1)c1cccs1 [ACLIDINIUM BROMIDE] |  | > 30 |  | > 10 | > 10 | > 30 | 4.5 |  | > 30 | > 30 | > 10 | > 10 | > 10 | > 30 |
| COc1cc(N)cn[n+]1-c1ccccc1 [AMEZINIUM METILSULFATE] | > 30 | > 30 | > 30 | > 10 | > 30 | > 30 | > 30 | > 30 | > 30 | > 30 | 5.7 | 3.9 | 17 |  |
| NS(=O)(=O)c1ccc(N2CCCCS2(=O)=O)cc1 | > 30 | > 30 | > 30 | > 30 | > 30 | > 30 | > 30 | > 30 | > 30 | > 30 | > 30 | > 30 | > 30 |  |
| CCCCC[C@H](O)CC[C@@H]1[C@H]2Cc3cccc(OCC(=O)O)c3C[C@H]2C[C@H]1O [TREPROSTINIL] | > 30 | > 30 | > 30 | > 30 | > 30 | > 30 | > 30 | > 30 | > 30 | > 30 | > 30 | > 30 | > 30 |  |
| C[C@H](N)C(=O)N[C@@H](CCC(N)=O)C(=O)O [ALANYL GLUTAMINE] (H-Ala-Gln-OH) | > 30 | > 30 | > 30 | > 30 | > 30 | > 30 | > 30 | > 30 | > 30 | > 30 | > 30 | > 30 | > 30 |  |
| O=C(O)c1ccc2nc(-c3cc(Cl)cc(Cl)c3)oc2c1 | > 30 | > 30 | > 30 | > 30 | > 30 | > 30 | > 30 | > 30 | > 30 | 30 | > 30 | > 30 | > 30 |  |
| CS(=O)(=O)NC(=O)CCC/C=C\C[C@H]1C(=O)C[C@@H](O)[C@@H]1/C=C/[C@@H](O)COc1ccccc1 [SULPROSTONE] | > 30 | > 30 | > 30 | > 30 | > 30 | > 30 | > 30 | > 30 | > 30 | > 30 | > 30 | > 30 | > 30 |  |
| CC(NC(C)(C)C)C(=O)c1cccc(Cl)c1 (stereo unspecified) [BUPROPION] | > 10 | > 30 | > 10 |  |  | > 30 |  |  | > 10 | > 10 |  |  |  | > 30 |
| CCCCCCCC(=O)CC[C@@H]1[C@@H](C/C=C\CCCC(=O)O)[C@@H](O)C[C@H]1O [UNOPROSTONE] | > 30 | > 30 | > 30 | > 30 | > 30 | > 30 | > 30 | > 30 | > 30 | > 30 | > 30 | > 30 | > 30 |  |
| CCCCOC(=O)C(=O)Nc1cccc(-c2nnn[nH]2)c1 [TAZANOLAST] | > 30 | > 30 | > 30 | > 30 | > 30 | > 30 | > 30 | > 30 | > 30 | > 30 | > 30 | > 30 | > 30 |  |
| CCN(CC)CC(=O)Nc1c(C)cccc1C [LIDOCAINE] |  | > 10 |  |  |  | > 30 |  |  |  |  |  |  |  | 22.7 |
| O=C(O)CCCC[C@@H]1SC[C@@H]2NC(=O)N[C@@H]21 [BIOTIN] | > 10 | > 10 | > 10 | > 10 |  | > 10 | > 10 |  | > 30 | > 30 | > 10 | > 10 |  | > 10 |
